Here are results for 13 compounds from PubChem BioAssay (NCI).

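Results reflect a 48-hour exposure of cells in 96-well plates to compound at five concentrations. GI50 marks 50% less growth. TGI is the concentration that stops growth completely.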

Some test systems named below: OVCAR-3 ovarian; OVCAR-8 ovarian; MALME-3M melanoma; HOP-62 NSCLC; TK-10 renal; A549 NSCLC; M14 melanoma; SR leukemia; KM12 colon; SNB-75 CNS.
Common to all, as to experiment: NCI-60 cell line screen, 48 h

On to `CN1CCN(c2ccc(Nc3cc(-c4cccc(-n5ccc6cc(C7CC7)cc(F)c6c5=O)c4CO)cn(C)c3=O)nc2)CC1`, for which the GI50 is 3.12 µM in the assay on OVCAR-3 ovarian; 4.84 µM in the assay with OVCAR-8 ovarian; 2.25 µM with MALME-3M melanoma; 3.97 µM in the assay on HOP-62 NSCLC; 3.69 µM in the assay on TK-10 renal; 5.27 µM in the assay with A549 NSCLC. The GI50 in the assay on M14 melanoma is 2.69 µM; in the assay with SR leukemia, 1.79 µM; with KM12 colon, 6.16 µM; in the assay with SNB-75 CNS it was 1.33 µM. Further, the TGI turned out to be 8.8 µM in the assay with OVCAR-3 ovarian; 29.7 µM with OVCAR-8 ovarian; 4.79 µM in the assay with MALME-3M melanoma; 20.7 µM with HOP-62 NSCLC; 14.3 µM in the assay on TK-10 renal; 19.2 µM with A549 NSCLC. The TGI in the assay with M14 melanoma came out at 8.19 µM; in the assay on SR leukemia it was 5.27 µM; in the assay with KM12 colon it was 31.1 µM; in the assay with SNB-75 CNS, 2.96 µM.

For `CCC(C)(C)c1ccc(OCCCCNC(=O)c2ccc3ccccc3c2O)c(C(C)(C)CC)c1`, the TGI was 73.2 µM in the assay with OVCAR-3 ovarian; over 100 µM with OVCAR-8 ovarian; over 100 µM in the assay with MALME-3M melanoma; over 100 µM in the assay with HOP-62 NSCLC; 80 µM with TK-10 renal; over 100 µM with A549 NSCLC. Besides, the TGI with M14 melanoma, in the assay on SR leukemia, with KM12 colon and with SNB-75 CNS was over 100 µM each time.

Take `COc1ccc(OCC(=O)O)c2c1CCCC2=O`: the TGI in the assay with OVCAR-3 ovarian, with OVCAR-8 ovarian, with MALME-3M melanoma, with HOP-62 NSCLC, in the assay with TK-10 renal and in the assay on A549 NSCLC was over 100 µM throughout. The TGI in the assay on M14 melanoma, in the assay on SR leukemia, with KM12 colon and in the assay with SNB-75 CNS was over 100 µM throughout.

Regarding `N=c1c2c(-c3ccccc3)c(-c3ccccc3)n(Cc3ccccc3)c2ncn1C1CCC(O)CC1` (stereo not given), the GI50 with OVCAR-3 ovarian was 0.488 µM; in the assay on OVCAR-8 ovarian it was 0.072 µM; in the assay on MALME-3M melanoma it was 0.389 µM; with HOP-62 NSCLC, 0.261 µM; in the assay on TK-10 renal it was 0.814 µM; in the assay on A549 NSCLC, 0.103 µM. Besides, the GI50 in the assay on M14 melanoma is 0.894 µM; in the assay with SR leukemia, 0.034 µM; in the assay with KM12 colon, 0.327 µM; in the assay with SNB-75 CNS, 0.92 µM. Also, the TGI in the assay on OVCAR-3 ovarian stood at 5.63 µM; with OVCAR-8 ovarian, 19 µM; in the assay on MALME-3M melanoma it was 1.68 µM; with HOP-62 NSCLC, 14.8 µM; in the assay with TK-10 renal it was 8.96 µM; in the assay with A549 NSCLC it was 12.9 µM. The TGI in the assay with M14 melanoma stood at 2.38 µM; in the assay with SR leukemia, 2.2 µM; with KM12 colon, 11.1 µM; in the assay with SNB-75 CNS it was 8.85 µM.

Take `CN(C)C(=S)/N=c1\sn(C)/c(=N\C(=S)N(C)C)n1C`: the TGI in the assay with OVCAR-3 ovarian is over 100 µM; in the assay on OVCAR-8 ovarian, over 100 µM; with MALME-3M melanoma it was 75.7 µM; in the assay on HOP-62 NSCLC, over 100 µM; with TK-10 renal, over 100 µM; in the assay on A549 NSCLC, over 100 µM. Moreover, the TGI in the assay with M14 melanoma, in the assay with SR leukemia, with KM12 colon and with SNB-75 CNS was over 100 µM in each case.

Take `NS(=O)(=O)c1ccc(N=Nc2c(O)c(C(=O)O)cc3ccccc23)cc1`: the TGI was over 100 µM in the assay on OVCAR-3 ovarian; over 100 µM with OVCAR-8 ovarian; 65.9 µM in the assay on MALME-3M melanoma; over 100 µM in the assay with HOP-62 NSCLC; over 100 µM in the assay on TK-10 renal; over 100 µM in the assay with A549 NSCLC. Besides, the TGI with M14 melanoma was over 100 µM; in the assay on SR leukemia, over 96.1 µM; with KM12 colon, over 100 µM; in the assay with SNB-75 CNS, over 100 µM.

As for `COC(=O)c1c2c(c(C)[n+]([O-])c1C)C(=O)C=C(NCc1ccc(F)cc1)C2=O`, the GI50 is 0.245 µM with OVCAR-3 ovarian; 0.37 µM in the assay on OVCAR-8 ovarian; 0.153 µM with MALME-3M melanoma; 1.38 µM in the assay with HOP-62 NSCLC; 3.3 µM in the assay with TK-10 renal; 0.794 µM in the assay with A549 NSCLC. Moreover, the GI50 in the assay on M14 melanoma is 0.513 µM; in the assay with SR leukemia it was 0.639 µM; in the assay with KM12 colon, 0.357 µM; in the assay on SNB-75 CNS, 1.65 µM. The TGI with OVCAR-3 ovarian came to 0.744 µM; in the assay on OVCAR-8 ovarian, 1.93 µM; in the assay on MALME-3M melanoma it was 0.389 µM; in the assay with HOP-62 NSCLC it was 3.76 µM; in the assay with TK-10 renal, 9.55 µM; with A549 NSCLC, 3.15 µM. The TGI was 1.9 µM in the assay with M14 melanoma, 9.92 µM in the assay on SR leukemia, 2.22 µM in the assay with KM12 colon and 3.03 µM in the assay with SNB-75 CNS.

Turning to `O=C(NC[C@H](O)CN1CCc2ccccc2C1)c1cc(NC2COC2)ncn1`, the GI50 with OVCAR-3 ovarian is 10.8 µM; in the assay on OVCAR-8 ovarian it was 20.8 µM; in the assay on MALME-3M melanoma, 14.1 µM; in the assay on HOP-62 NSCLC, 37.7 µM; with TK-10 renal, 22 µM; in the assay on A549 NSCLC, 39.5 µM. The GI50 in the assay with M14 melanoma was 23 µM; in the assay on SR leukemia, 9.29 µM; in the assay on KM12 colon, 16.2 µM; in the assay on SNB-75 CNS it was 12.5 µM. Further, the TGI with OVCAR-3 ovarian is 49.1 µM; with OVCAR-8 ovarian, over 100 µM; in the assay with MALME-3M melanoma it was 68.3 µM; with HOP-62 NSCLC, over 100 µM; in the assay on TK-10 renal it was 88.9 µM; with A549 NSCLC, over 100 µM. The TGI was over 100 µM in the assay with M14 melanoma, 50.9 µM with SR leukemia, over 100 µM in the assay on KM12 colon and 64.5 µM in the assay on SNB-75 CNS.

As to `O=C(c1ccco1)c1c(C(F)(F)F)nc2ccc(Cl)cc2[n+]1[O-]`, the GI50 in the assay on OVCAR-3 ovarian, in the assay on OVCAR-8 ovarian, in the assay on MALME-3M melanoma, in the assay with HOP-62 NSCLC, with TK-10 renal and in the assay with A549 NSCLC was over 100 µM in each case. For the same compound, the GI50 in the assay on M14 melanoma is over 100 µM; in the assay with SR leukemia it was 86.6 µM; in the assay on KM12 colon it was over 100 µM; in the assay with SNB-75 CNS, 54 µM. Moreover, the TGI with OVCAR-3 ovarian, in the assay with OVCAR-8 ovarian, in the assay on MALME-3M melanoma, in the assay with HOP-62 NSCLC, with TK-10 renal and in the assay with A549 NSCLC was over 100 µM each time. The TGI in the assay with M14 melanoma, in the assay with SR leukemia, in the assay with KM12 colon and with SNB-75 CNS was over 100 µM throughout.

On to `CCN1CCN(c2cc(C)c3cc(NC(=O)c4ccc(OC)c(OC)c4)ccc3n2)CC1`, for which the GI50 in the assay on OVCAR-3 ovarian is 0.528 µM; with OVCAR-8 ovarian, 50.7 µM; in the assay on MALME-3M melanoma it was 13.3 µM; with HOP-62 NSCLC, over 37 µM; in the assay with TK-10 renal, over 59 µM; in the assay on A549 NSCLC, 11.1 µM. Moreover, the GI50 in the assay with M14 melanoma was 8.88 µM; in the assay on SR leukemia, 1.44 µM; in the assay on KM12 colon it was 3.48 µM; in the assay with SNB-75 CNS, 5.54 µM. Moreover, the TGI in the assay with OVCAR-3 ovarian was 20.1 µM; in the assay with OVCAR-8 ovarian it was over 100 µM; in the assay with MALME-3M melanoma it was 31.3 µM; in the assay with HOP-62 NSCLC, over 57.7 µM; in the assay with TK-10 renal it was 98.5 µM; with A549 NSCLC, over 100 µM. Also, the TGI in the assay on M14 melanoma was over 100 µM; in the assay with SR leukemia, over 30.5 µM; in the assay with KM12 colon, over 86.3 µM; in the assay on SNB-75 CNS, over 61.3 µM.

In the case of `CC(C)C1=Cc2ccc3c(c2C(=O)C1=O)CCCC3(C)C`, the TGI in the assay on OVCAR-3 ovarian was 6.71 µM; with OVCAR-8 ovarian, 10 µM; in the assay with MALME-3M melanoma, 10.5 µM; with HOP-62 NSCLC it was 37 µM; in the assay on TK-10 renal, 11.2 µM; with A549 NSCLC, 34.8 µM. For the same compound, the TGI amounted to 16.2 µM in the assay on M14 melanoma, 6.48 µM in the assay on SR leukemia, 33.1 µM with KM12 colon and 29.3 µM in the assay on SNB-75 CNS.

`COc1ccc(CCN(C)C2CCC(C#N)(c3ccc(OC)c(OC)c3)CC2)cc1OC` (stereo not given): the TGI with OVCAR-3 ovarian, in the assay with OVCAR-8 ovarian, in the assay on MALME-3M melanoma, with HOP-62 NSCLC, with TK-10 renal and in the assay with A549 NSCLC was over 100 µM throughout. Also, the TGI in the assay with M14 melanoma, with SR leukemia, with KM12 colon and in the assay on SNB-75 CNS was over 100 µM throughout.

In the case of `O=c1oc2ccc(-c3ccc(F)cc3F)cc2c(=O)n1-c1cccc(C(F)(F)F)c1`, the GI50 in the assay on OVCAR-3 ovarian was 0.784 µM; with OVCAR-8 ovarian it was 2.05 µM; in the assay on MALME-3M melanoma, 0.785 µM; with HOP-62 NSCLC, 1.73 µM; in the assay with TK-10 renal it was 3.52 µM; with A549 NSCLC, 1.75 µM. Further, the GI50 was 0.525 µM with M14 melanoma, 1.31 µM in the assay on SR leukemia, 2.09 µM in the assay with KM12 colon and 1.33 µM in the assay with SNB-75 CNS. For the same compound, the TGI is 12.8 µM in the assay on OVCAR-3 ovarian; over 100 µM in the assay with OVCAR-8 ovarian; 4.74 µM in the assay with MALME-3M melanoma; 4.57 µM in the assay on HOP-62 NSCLC; 15.8 µM with TK-10 renal; 34.8 µM in the assay on A549 NSCLC. The TGI in the assay with M14 melanoma turned out to be 4.21 µM; in the assay on SR leukemia it was 6.25 µM; with KM12 colon it was 5.63 µM; with SNB-75 CNS, 3.78 µM.
